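Protocol summary: plate cells (96-well), add compound at 5 concentrations, incubate 48 h, interpolate endpoints linearly. TGI is the concentration that stops growth completely.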

The subject of the first assay is DMS 273 small cell lung. Kind of assay: growth of human tumour cells (NCI), 48 h.
The molecule `CC(=O)OCC1=C(CCC#N)N2C(=O)C(NC(=O)Cc3cccs3)C2S(=O)C1` (stereo not drawn) came in with a TGI of over 100 µM.
For the molecule `CCCCNc1nc(C#N)c(N)s1`, the TGI was over 100 µM.
`Cn1cc2ccccc2c1-c1nc(F)nc(F)n1` had a TGI of over 100 µM.
Still for that read-out and setting: then `COC(=O)N/N=C(\Cc1ccccc1)CN(C)C`, with over 100 µM; and `COc1ccc2c3c1O[C@]1(C)C34CCN(C)C(C2)C42C=C[C@@]1(OC)c1c(O)ccc(O)c12`, with over 100 µM.
Take `COc1ccc(Nc2nnc(-c3nsc4ccccc34)s2)cc1`: the TGI was over 100 µM.
Same read-out and setting: for `C/C(CC(=O)Nc1ccc([N+](=O)[O-])cc1)=N\NC(N)=O` the value was over 100 µM; for `CCCCOC(=O)C1C2CCC(O2)C1C(=O)OCCCC` (stereo not drawn), over 100 µM; for `CC(=O)OC1COC(n2c(O)c(N=NC(N)=S)c3cc(Br)ccc32)C(OC(C)=O)C1OC(C)=O` (stereo not drawn), over 100 µM.
Same read-out and setting: for `O=C(CSc1nnc(-c2ccc(N=Cc3ccc(Cl)cc3)cc2)o1)Nc1ccccc1[N+](=O)[O-]` the value was over 100 µM.

The test system of the next assay is CAKI-1 renal. As to the kind of experiment: growth of human tumour cells (NCI), 48 h.
Turning to `C=Cc1ccc(C)[n+](C[Si](C)(C)O[Si](C)(C)C)c1`, the TGI was over 100 µM.
`C[C@]12CCC(=O)C=C1CC[C@@H]1[C@@H]2CC[C@]2(C)C(=O)NC(=O)C[C@@H]12` came in with a TGI of over 100 µM.
Turning to `COc1cc2c(oc(=O)c3c4oc([Si](C)(C)C)cc4cc(OC)c23)c2cccc(OCc3ccccc3)c12`, the TGI is 41.2 µM.
Molecule `O=C(c1cccs1)N(C(=S)N1CCN(c2ccccn2)CC1)c1ccccc1` came in with a TGI of over 100 µM.
With `CNS(=O)(=O)NN(C)S(=O)(=O)c1ccccc1`, the TGI is over 100 µM.
In the case of `CC(=O)OCC1=C(CCC#N)N2C(=O)C(NC(=O)Cc3cccs3)C2S(=O)C1` (stereo not drawn), the TGI is over 100 µM.
In turn, `CCCCNc1nc(C#N)c(N)s1` had a TGI of over 100 µM.
`Cn1cc2ccccc2c1-c1nc(F)nc(F)n1` showed a TGI of over 100 µM.
`CC1=NN(C(=O)c2ccccc2O)C(=O)/C1=C/c1ccco1`: the TGI amounted to 19.7 µM.
For `C[N+](C)(C)CC(=O)N/N=C/c1oc(-c2c(O)ccc3ccccc23)c(-c2c(O)ccc3ccccc23)c1[N+](=O)[O-]`, the TGI came out at 75.5 µM.
As for `COc1ccc(Nc2nnc(-c3nsc4ccccc34)s2)cc1`, the TGI is over 100 µM.
`C=CCNC1=C2C[C@@H](C)C[C@@H](OC)[C@H](OC(=O)CCN)[C@H](C)/C=C(\C)[C@@H](OC(N)=O)[C@H](OC)/C=C\C=C(/C)C(=O)NC(=CC1=O)C2=O` yielded a TGI of 25.6 µM.
`COC(=O)C1(CCC(C)=O)CCCCCC1=O` (stereo not drawn) returned a TGI of over 100 µM.
With `COC(=O)c1ccc(C)cc1CC1Cc2cc(C)ccc2C1=O` (stereo not drawn), the TGI is over 100 µM.
Turning to `C(=C\c1cccs1)/c1cccc(/C=C/c2cccs2)n1`, the TGI is over 100 µM.
`CC(CCN)(CCN)[N+](=O)[O-]` yielded a TGI of over 100 µM.
On the same count and under the same terms, for `C/C(CC(=O)Nc1ccc([N+](=O)[O-])cc1)=N\NC(N)=O` the value was over 100 µM; for `NN(CC(=O)O)CC(=O)O`, over 100 µM; for `CCOC(=O)c1cccn1S(=O)(=O)c1cc(Cl)ccc1NC(=O)CC`, over 100 µM.
`CCCCOC(=O)C1C2CCC(O2)C1C(=O)OCCCC` (stereo not drawn) yielded a TGI of over 100 µM.
Regarding `C=CCN1C(=O)C=C(c2ccccc2)n2ncc3cccc1c32`, the TGI was over 100 µM.
Same read-out and setting: for `O=C([O-])C[n+]1ccccc1` the value was over 100 µM; for `CC(=O)OC1COC(n2c(O)c(N=NC(N)=S)c3cc(Br)ccc32)C(OC(C)=O)C1OC(C)=O` (stereo not drawn), over 100 µM; for `COc1ccc(-c2c(C#N)c(N)n(C3OCC(OC(C)=O)C(OC(C)=O)C3OC(C)=O)c(=S)c2C#N)cc1` (stereo not drawn), over 100 µM.
Still for that read-out and setting: then `CSc1nc(C#N)c(/N=C\N(C)C)n1C`, with over 100 µM; and `CN(C)CCCSc1nc2ccccc2[nH]1`, with over 100 µM.

Another assay deals with LOX IMVI melanoma. Kind of assay: growth of human tumour cells (NCI), 48 h.
`O=c1[nH]c2cc([N+](=O)[O-])ccc2nc1/C(=N/Nc1ccccc1)C(O)c1ccccc1Cl` (stereo not drawn) came in with a TGI of over 100 µM.
Turning to `C=Cc1ccc(C)[n+](C[Si](C)(C)O[Si](C)(C)C)c1`, the TGI is over 100 µM.
As to `C[C@]12CCC(=O)C=C1CC[C@@H]1[C@@H]2CC[C@]2(C)C(=O)NC(=O)C[C@@H]12`, the TGI was over 100 µM.
Regarding `COc1cc2c(oc(=O)c3c4oc([Si](C)(C)C)cc4cc(OC)c23)c2cccc(OCc3ccccc3)c12`, the TGI is over 100 µM.
Take `O=C(c1cccs1)N(C(=S)N1CCN(c2ccccn2)CC1)c1ccccc1`: the TGI was over 100 µM.
Molecule `CNS(=O)(=O)NN(C)S(=O)(=O)c1ccccc1` displayed a TGI of over 100 µM.
Turning to `CC(=O)OCC1=C(CCC#N)N2C(=O)C(NC(=O)Cc3cccs3)C2S(=O)C1` (stereo not drawn), the TGI is over 100 µM.
Still for that read-out and setting: for `CCCCNc1nc(C#N)c(N)s1` the value was over 100 µM.
In turn, `Cn1cc2ccccc2c1-c1nc(F)nc(F)n1` registered a TGI of over 100 µM.
As to `COC(=O)N/N=C(\Cc1ccccc1)CN(C)C`, the TGI is over 100 µM.
Molecule `CC1=NN(C(=O)c2ccccc2O)C(=O)/C1=C/c1ccco1` came in with a TGI of over 75.5 µM.
Same read-out and setting: then `COc1ccc2c3c1O[C@]1(C)C34CCN(C)C(C2)C42C=C[C@@]1(OC)c1c(O)ccc(O)c12`, with over 100 µM.
Regarding `C[N+](C)(C)CC(=O)N/N=C/c1oc(-c2c(O)ccc3ccccc23)c(-c2c(O)ccc3ccccc23)c1[N+](=O)[O-]`, the TGI was 33.3 µM.
As to `COc1ccc(Nc2nnc(-c3nsc4ccccc34)s2)cc1`, the TGI was over 100 µM.
For `C=CCNC1=C2C[C@@H](C)C[C@@H](OC)[C@H](OC(=O)CCN)[C@H](C)/C=C(\C)[C@@H](OC(N)=O)[C@H](OC)/C=C\C=C(/C)C(=O)NC(=CC1=O)C2=O`, the TGI turned out to be 10.8 µM.
With `COC(=O)C1(CCC(C)=O)CCCCCC1=O` (stereo not drawn), the TGI was over 100 µM.
With `COC(=O)c1ccc(C)cc1CC1Cc2cc(C)ccc2C1=O` (stereo not drawn), the TGI was over 100 µM.
In turn, `C(=C\c1cccs1)/c1cccc(/C=C/c2cccs2)n1` displayed a TGI of over 100 µM.
Consider `CC(CCN)(CCN)[N+](=O)[O-]`, for which the TGI is over 100 µM.
Take `C/C(CC(=O)Nc1ccc([N+](=O)[O-])cc1)=N\NC(N)=O`: the TGI was over 100 µM.
Regarding `NN(CC(=O)O)CC(=O)O`, the TGI was over 100 µM.
In turn, `CCOC(=O)c1cccn1S(=O)(=O)c1cc(Cl)ccc1NC(=O)CC` showed a TGI of over 100 µM.
With `CCCCOC(=O)C1C2CCC(O2)C1C(=O)OCCCC` (stereo not drawn), the TGI is over 60.7 µM.
Same read-out and setting: for `C=CCN1C(=O)C=C(c2ccccc2)n2ncc3cccc1c32` the value was over 100 µM.
Molecule `O=C([O-])C[n+]1ccccc1` showed a TGI of over 100 µM.
Take `CC(=O)OC1COC(n2c(O)c(N=NC(N)=S)c3cc(Br)ccc32)C(OC(C)=O)C1OC(C)=O` (stereo not drawn): the TGI was over 100 µM.
In turn, `COc1ccc(-c2c(C#N)c(N)n(C3OCC(OC(C)=O)C(OC(C)=O)C3OC(C)=O)c(=S)c2C#N)cc1` (stereo not drawn) yielded a TGI of over 100 µM.

The values are drawn from PubChem BioAssay (NCI).
